Patent US20230114728A1 (Venatorx Pharmaceuticals, Inc., priority 2019, published 2023)
Values after ≈ are worked out from the molar mass of the structure shown.

What was measured:
[1] = target: T1, N. gonorrhoeae PBP2 (Neisseria gonorrhoeae, UniProt P08149); test: Bocillin-FL fluorescence polarization competition binding assay, N. gonorrhoeae PBP2; conditions: fluorescence polarization competition binding assay using Bocillin-FL; read-out: N. gonorrhoeae PBP2 Potency
T1 construct: made in house
Outline: (§1)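 A. baumannii PBP2 (2.5 μM) and PBP3 (0.2 μM) were run in 25 mM Tris pH 8.0 buffer with Tween 20; E. coli PBP3 (1.5 μM) and N. gonorrhoeae PBP2 ([…]) in 50 mM Hepes pH 8.0 buffer.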

[2] = target: A. baumannii PBP1a (Acinetobacter baumannii, UniProt A0ABX6CK30); test: Bocillin-FL fluorescence polarization competition binding assay, A. baumannii PBP1a; conditions: fluorescence polarization competition binding assay using Bocillin-FL; column 1; read-out: A. baumannii PBP1a Potency
[3] = Bocillin-FL fluorescence polarization competition binding assay, A. baumannii PBP3; conditions: fluorescence polarization competition binding assay using Bocillin-FL; column 3; read-out: 4. baumannii PBP1a Potency
Outline: as §1

[4] = system: A. baumannii CDC-0045 producing TEM-1D, OXA-23, and OXA-69; test: Broth microdilution MIC in iron-depleted CAMHB (IDM); type: cell-based; conditions: Acinetobacter baumannii, read-out: Minimum Inhibitory Concentration, CDC-0045
[5] = system: P. aeruginosa CDC-0110; test: as above; type: cell-based; conditions: Pseudomonas aeruginosa, CDC0110, read-out: Minimum Inhibitory Concentration, P. aeruginosa CDC-0110
Outline: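 MIC is the lowest well showing no visible growth after 16-20 h at 37 °C, starting from 2-8×10^5 CFU/mL in 2-fold serial compound dilutions. Medium: cation-adjusted Mueller Hinton broth iron-depleted with Chelex 100, supplemented back with Ca, Mg and Zn, pH 7.3; CLSI protocol.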

T1 sequence (P08149 whole entry): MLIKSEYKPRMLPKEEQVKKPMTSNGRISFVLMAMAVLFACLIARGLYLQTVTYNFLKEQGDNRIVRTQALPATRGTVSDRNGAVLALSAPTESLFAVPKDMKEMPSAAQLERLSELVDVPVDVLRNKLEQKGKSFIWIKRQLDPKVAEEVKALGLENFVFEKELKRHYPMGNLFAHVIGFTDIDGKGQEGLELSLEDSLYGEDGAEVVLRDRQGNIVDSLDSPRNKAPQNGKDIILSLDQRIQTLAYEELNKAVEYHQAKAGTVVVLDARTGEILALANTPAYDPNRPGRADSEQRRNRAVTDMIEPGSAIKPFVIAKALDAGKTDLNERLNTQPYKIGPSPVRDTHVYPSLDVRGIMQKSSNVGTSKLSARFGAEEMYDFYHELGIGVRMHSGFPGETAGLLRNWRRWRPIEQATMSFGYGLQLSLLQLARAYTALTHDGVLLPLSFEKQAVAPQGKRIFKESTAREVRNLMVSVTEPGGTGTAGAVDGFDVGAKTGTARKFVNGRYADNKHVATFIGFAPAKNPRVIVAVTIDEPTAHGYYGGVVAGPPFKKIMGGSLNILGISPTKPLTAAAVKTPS
Chain of A. baumannii PBP1a (A0ABX6CK30 entry or part of it): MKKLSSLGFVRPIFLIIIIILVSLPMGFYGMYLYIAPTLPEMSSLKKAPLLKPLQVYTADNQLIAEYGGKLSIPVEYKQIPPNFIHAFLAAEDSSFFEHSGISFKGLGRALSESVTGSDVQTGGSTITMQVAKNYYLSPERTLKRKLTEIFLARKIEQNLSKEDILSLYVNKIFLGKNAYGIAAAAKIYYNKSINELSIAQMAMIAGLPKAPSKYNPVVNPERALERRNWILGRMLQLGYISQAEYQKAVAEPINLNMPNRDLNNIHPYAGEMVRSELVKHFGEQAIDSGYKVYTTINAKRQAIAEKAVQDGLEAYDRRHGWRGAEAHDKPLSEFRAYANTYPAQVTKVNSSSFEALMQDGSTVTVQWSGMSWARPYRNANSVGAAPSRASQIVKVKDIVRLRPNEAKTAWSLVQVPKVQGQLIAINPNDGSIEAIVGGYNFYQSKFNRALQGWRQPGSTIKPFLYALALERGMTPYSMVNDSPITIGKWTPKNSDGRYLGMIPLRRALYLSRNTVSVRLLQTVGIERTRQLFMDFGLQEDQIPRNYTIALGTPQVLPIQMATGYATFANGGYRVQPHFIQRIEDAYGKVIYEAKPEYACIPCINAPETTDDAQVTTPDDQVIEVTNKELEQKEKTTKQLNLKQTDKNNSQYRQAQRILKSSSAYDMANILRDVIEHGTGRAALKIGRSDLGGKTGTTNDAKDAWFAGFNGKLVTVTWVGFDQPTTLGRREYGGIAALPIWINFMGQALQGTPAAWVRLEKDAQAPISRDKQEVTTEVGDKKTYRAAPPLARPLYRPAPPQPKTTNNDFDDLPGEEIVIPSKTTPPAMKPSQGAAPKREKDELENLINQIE

SMILES | EC50 [1] [µM] | EC50 [2] [µM] | EC50 [3] [µM] | MIC [4] [µg/mL] | MIC [5] [µg/mL]
CCN1CCN(C(=O)N[C@@H](C(=O)N[C@H]2Cc3cccc(C(=O)O)c3OB2O)c2c(O)cc(O)cc2F)C(=O)C1=O (single isomer, unassigned) [Example 182] | > 100 | > 100 | > 100 | – | –
CS(=O)(=O)N1CCN(C(=O)N[C@@H](C(=O)N[C@H]2Cc3ccc(F)c(C(=O)O)c3OB2O)c2cc(F)c(O)c(O)c2Cl)C1=O (single isomer, unassigned) [Example 189] | 10 to 30 | > 100 | 10 to 30 | 2 to 4 (≈ 3.16 to 6.32 µM) | 0.5 to 1 (≈ 0.79 to 1.58 µM)
C[C@H]1CN(CCNC(=O)c2ccc(O)c(O)c2Cl)C(=O)C(=O)N1C(=O)NC(C(=O)N[C@H]1Cc2cccc(C(=O)O)c2OB1O)c1ncc(O)cc1F (stereo partly drawn) [Example 2, (3R)-3-(2-((S)-4-(2-(2-chloro-3,4-dihydroxybenzamido)ethyl)-6-methyl-2,3-dioxopiperazine-1-carboxamido)-2-(3-fluoro-5-hydroxypyridin-2-yl)acetamido)-2-hydroxy-3,4-dihydro-2H-benzo[e][1,2]oxaborinine-8-carboxylic acid] | – | 10 to 30 | < 10 | 2 to 4 (≈ 2.69 to 5.38 µM) | 2 to 4 (≈ 2.69 to 5.38 µM)
O=C(NCCCN1CCN(C(=O)NC(C(=O)N[C@H]2Cc3ccc(F)c(C(=O)O)c3OB2O)c2ncc(O)cc2F)C(=O)C1=O)c1ccc(O)c(O)c1Cl (stereo partly drawn) [Example 3, (3R)-3-(2-(4-(3-(2-chloro-3,4-dihydroxybenzamido)propyl)-2,3-dioxopiperazine-1-carboxamido)-2-(3-fluoro-5-hydroxypyridin-2-yl)acetamido)-7-fluoro-2-hydroxy-3,4-dihydro-2H-benzo[e][1,2]oxaborinine-8-carboxylic acid] | – | 30 to 100 | < 10 | 32 to 64 (≈ 42.1 to 84.1 µM) | 2 to 4 (≈ 2.63 to 5.26 µM)
O=C(NCCN1CCN(C(=O)NC(C(=O)N[C@H]2Cc3ccc(F)c(C(=O)O)c3OB2O)c2ncc(O)cc2F)C(=O)C1=O)c1c(F)cc(O)c(O)c1Cl (stereo partly drawn) [Example 5, (3R)-3-(2-(4-(2-(2-chloro-6-fluoro-3,4-dihydroxybenzamido)ethyl)-2,3-dioxopiperazine-1-carboxamido)-2-(3-fluoro-5-hydroxypyridin-2-yl)acetamido)-7-fluoro-2-hydroxy-3,4-dihydro-2H-benzo[e][1,2]oxaborinine-8-carboxylic acid] | – | 10 to 30 | < 10 | 2 to 4 (≈ 2.61 to 5.23 µM) | 0.25 (≈ 0.327 µM)
NCCCN1CCN(C(=O)N[C@@H](C(=O)N[C@H]2Cc3cc(Cl)c(F)c(C(=O)O)c3OB2O)c2c(F)cc(O)c(O)c2Cl)C(=O)C1=O [Example 190, (R)-3-((R)-2-(4-(3-aminopropyl)-2,3-dioxopiperazine-1-carboxamido)-2-(2-chloro-6-fluoro-3,4-dihydroxyphenyl)acetamido)-6-chloro-7-fluoro-2-hydroxy-3,4-dihydro-2H-benzo[e][1,2]oxaborinine-8-carboxylic acid] | > 100 | > 100 | > 100 | > 128 | 2 to 4 (≈ 2.97 to 5.93 µM)
CCN1CCN(C(=O)N[C@@H](C(=O)N[C@H]2Cc3cc(Cl)c(F)c(C(=O)O)c3OB2O)c2c(F)cc(O)c(O)c2Cl)C(=O)C1=O [Example 191, (R)-6-chloro-3-((R)-2-(2-chloro-6-fluoro-3,4-dihydroxyphenyl)-2-(4-ethyl-2,3-dioxopiperazine-1-carboxamido)acetamido)-7-fluoro-2-hydroxy-3,4-dihydro-2H-benzo[e][1,2]oxaborinine-8-carboxylic acid] | 30 to 100 | > 100 | 30 to 100 | > 128 | 2 to 4 (≈ 3.1 to 6.2 µM)
